The record followed here is patent publication US11497752B2, “Compounds and uses thereof” (Foghorn Therapeutics Inc., priority 2018, dated 2022).

Experiment [1] concerns the target BRM (Homo sapiens, UniProt P51531). In words: ATPase catalytic activity of BRM (ADP-Glo in vitro biochemical assay). As to conditions: for BRM Max % Inhibition: Table 6. (ADP-Glo first removes unused ATP, then detects ADP through luciferase.)
Experiment [2] deals with BRG-1 (Homo sapiens, UniProt P51532). As to the kind of experiment: ATPase catalytic activity of BRG-1 (ADP-Glo in vitro biochemical assay). As to conditions: for BRG1 Max % Inhibition: Table 6.
BRG-1, sequence (P51532 whole entry): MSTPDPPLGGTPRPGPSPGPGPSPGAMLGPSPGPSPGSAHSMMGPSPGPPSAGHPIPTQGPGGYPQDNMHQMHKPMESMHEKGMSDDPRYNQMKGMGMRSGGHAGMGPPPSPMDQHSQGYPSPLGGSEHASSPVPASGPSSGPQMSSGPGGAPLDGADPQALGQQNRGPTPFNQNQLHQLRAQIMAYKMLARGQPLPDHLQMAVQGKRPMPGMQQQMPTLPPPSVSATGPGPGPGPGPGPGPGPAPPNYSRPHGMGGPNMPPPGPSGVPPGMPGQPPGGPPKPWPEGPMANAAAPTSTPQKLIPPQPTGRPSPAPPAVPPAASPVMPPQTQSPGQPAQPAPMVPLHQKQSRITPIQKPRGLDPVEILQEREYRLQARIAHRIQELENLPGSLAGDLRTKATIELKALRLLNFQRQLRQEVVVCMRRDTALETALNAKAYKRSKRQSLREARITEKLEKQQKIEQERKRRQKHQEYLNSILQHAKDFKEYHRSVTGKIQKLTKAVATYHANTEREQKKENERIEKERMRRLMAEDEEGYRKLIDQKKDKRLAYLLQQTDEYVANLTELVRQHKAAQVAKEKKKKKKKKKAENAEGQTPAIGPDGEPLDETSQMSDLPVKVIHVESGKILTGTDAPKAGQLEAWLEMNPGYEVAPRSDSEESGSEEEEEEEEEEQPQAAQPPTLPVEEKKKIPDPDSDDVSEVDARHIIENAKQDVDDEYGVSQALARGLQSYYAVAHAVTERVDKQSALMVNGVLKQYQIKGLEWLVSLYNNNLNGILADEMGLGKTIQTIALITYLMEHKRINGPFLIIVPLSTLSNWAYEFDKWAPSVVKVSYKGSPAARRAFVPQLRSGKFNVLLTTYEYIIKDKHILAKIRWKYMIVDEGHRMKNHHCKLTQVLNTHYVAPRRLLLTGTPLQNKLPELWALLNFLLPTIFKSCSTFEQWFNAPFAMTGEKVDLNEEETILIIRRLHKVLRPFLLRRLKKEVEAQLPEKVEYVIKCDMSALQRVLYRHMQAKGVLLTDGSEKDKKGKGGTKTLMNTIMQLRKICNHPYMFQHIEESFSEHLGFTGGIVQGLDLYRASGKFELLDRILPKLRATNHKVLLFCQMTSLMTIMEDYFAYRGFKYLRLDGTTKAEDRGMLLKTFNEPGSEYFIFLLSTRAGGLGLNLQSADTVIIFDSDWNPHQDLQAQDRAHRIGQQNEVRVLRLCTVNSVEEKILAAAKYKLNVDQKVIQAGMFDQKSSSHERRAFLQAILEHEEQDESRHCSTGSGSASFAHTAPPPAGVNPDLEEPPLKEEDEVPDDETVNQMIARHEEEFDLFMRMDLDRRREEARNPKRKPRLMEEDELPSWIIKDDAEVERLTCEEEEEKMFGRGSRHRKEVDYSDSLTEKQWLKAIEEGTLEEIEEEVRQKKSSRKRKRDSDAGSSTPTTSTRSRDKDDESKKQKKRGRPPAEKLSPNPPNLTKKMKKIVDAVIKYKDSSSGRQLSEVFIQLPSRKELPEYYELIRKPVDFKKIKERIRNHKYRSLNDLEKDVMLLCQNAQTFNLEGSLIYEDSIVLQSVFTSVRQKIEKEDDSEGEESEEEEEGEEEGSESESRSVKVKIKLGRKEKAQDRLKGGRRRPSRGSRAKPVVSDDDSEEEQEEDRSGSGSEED

BRM, sequence (P51531 whole entry): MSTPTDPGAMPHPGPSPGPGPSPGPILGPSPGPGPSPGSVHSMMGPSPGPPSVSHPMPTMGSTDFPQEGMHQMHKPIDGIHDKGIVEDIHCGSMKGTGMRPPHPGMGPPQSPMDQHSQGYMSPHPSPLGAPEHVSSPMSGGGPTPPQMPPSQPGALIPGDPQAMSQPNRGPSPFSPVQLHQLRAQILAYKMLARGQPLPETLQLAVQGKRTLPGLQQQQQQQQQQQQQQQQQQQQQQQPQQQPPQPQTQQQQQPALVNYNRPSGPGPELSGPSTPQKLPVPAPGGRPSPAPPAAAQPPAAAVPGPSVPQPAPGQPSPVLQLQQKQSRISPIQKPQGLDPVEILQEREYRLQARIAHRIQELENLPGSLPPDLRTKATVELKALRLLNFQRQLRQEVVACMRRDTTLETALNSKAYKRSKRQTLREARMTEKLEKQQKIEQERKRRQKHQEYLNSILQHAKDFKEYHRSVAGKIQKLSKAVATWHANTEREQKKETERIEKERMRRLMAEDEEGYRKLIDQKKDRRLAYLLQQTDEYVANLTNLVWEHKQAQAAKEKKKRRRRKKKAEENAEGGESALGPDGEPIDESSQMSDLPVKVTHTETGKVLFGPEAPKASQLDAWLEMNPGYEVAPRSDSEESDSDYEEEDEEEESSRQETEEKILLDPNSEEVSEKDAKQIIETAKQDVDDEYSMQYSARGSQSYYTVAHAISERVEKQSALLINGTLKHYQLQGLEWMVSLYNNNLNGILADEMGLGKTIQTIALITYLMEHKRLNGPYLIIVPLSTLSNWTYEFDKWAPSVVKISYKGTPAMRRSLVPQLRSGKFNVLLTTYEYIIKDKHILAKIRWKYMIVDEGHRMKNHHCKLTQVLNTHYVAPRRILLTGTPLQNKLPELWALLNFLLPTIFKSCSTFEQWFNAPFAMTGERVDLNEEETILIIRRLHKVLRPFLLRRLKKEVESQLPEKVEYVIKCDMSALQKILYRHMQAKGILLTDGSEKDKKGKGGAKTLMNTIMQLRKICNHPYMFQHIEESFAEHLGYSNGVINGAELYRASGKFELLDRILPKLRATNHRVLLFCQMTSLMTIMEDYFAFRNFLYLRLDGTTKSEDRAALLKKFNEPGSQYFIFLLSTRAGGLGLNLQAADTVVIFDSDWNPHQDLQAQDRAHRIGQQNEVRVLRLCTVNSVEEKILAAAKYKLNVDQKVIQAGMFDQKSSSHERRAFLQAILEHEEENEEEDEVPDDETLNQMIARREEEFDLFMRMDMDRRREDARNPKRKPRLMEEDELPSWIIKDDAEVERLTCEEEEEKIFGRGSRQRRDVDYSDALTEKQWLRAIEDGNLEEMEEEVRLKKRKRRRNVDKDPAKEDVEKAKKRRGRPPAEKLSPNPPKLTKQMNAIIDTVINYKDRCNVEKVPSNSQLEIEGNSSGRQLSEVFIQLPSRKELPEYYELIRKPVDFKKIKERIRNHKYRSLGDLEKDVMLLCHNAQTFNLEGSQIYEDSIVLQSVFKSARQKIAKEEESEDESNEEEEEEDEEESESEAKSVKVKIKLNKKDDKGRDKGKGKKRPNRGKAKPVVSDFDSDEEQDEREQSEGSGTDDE

On to `Cn1ccc2ccc(-c3csc(NC(=O)CNC(=O)c4ccc(N)cc4)n3)cc2c1=O` [Compound 143, 4-amino-N-(2-((4-(2-methyl-1-oxo-1,2-dihydroisoquinolin-7-yl)thiazol-2-yl)amino)-2-oxoethyl)benzamide], for which, in experiment [1], the IC50 – broadly, the concentration that gives 50% inhibition – is below 100 nM and the “BRM Max % Inhibition” value is above 95%. Besides, in experiment [2], the IC50 is below 100 nM and the “BRG1 Max % Inhibition” value was above 95%.
Consider `CNC(=O)c1cccc(-c2cccc(-c3csc(NC(=O)CNC(=O)c4ccc(N)cc4)n3)c2)c1` [Compound 144, 3-[3-[2-[[2-[(4-aminobenzoyl)amino]acetyl]amino]thiazol-4-yl]phenyl]-N-methyl-benzamide], for which, in experiment [1], the IC50 lay in the range of 100 to 1000 nM and the “BRM Max % Inhibition” value was above 95%. For the same compound, in experiment [2], the IC50 was 100 to 1000 nM and the “BRG1 Max % Inhibition” value is above 95%.
Turning to `CN(C)Cc1ccc(-c2cccc(-c3csc(NC(=O)CNC(=O)c4ccc(N)cc4)n3)c2)cc1` [Compound 145, 4-amino-N-(2-((4-(4′-((dimethylamino)methyl)-[1,1′-biphenyl]-3-yl)thiazol-2-yl)amino)-2-oxoethyl)benzamide], in experiment [1], the IC50 was in the range of 100 to 1000 nM and the “BRM Max % Inhibition” value is reported as above 90%. Also, in experiment [2], the IC50 is 100 to 1000 nM and the “BRG1 Max % Inhibition” value is above 90%.
As to `COc1cc(-c2cccc(-c3csc(NC(=O)CNC(=O)c4ccc(N)cc4)n3)c2)ccn1` [Compound 146, 4-amino-N-(2-((4-(3-(2-methoxypyridin-4-yl)phenyl)thiazol-2-yl)amino)-2-oxoethyl)benzamide], in experiment [1], the IC50 was below 100 nM and the “BRM Max % Inhibition” value is listed as above 95%. Further, in experiment [2], the IC50 was below 100 nM and the “BRG1 Max % Inhibition” value is given as above 95%.
Take `Nc1ccc(C(=O)NCC(=O)Nc2nc(-c3ccc4cc[nH]c(=O)c4c3)cs2)cc1` [Compound 147, 4-amino-N-(2-oxo-2-((4-(1-oxo-1,2-dihydroisoquinolin-7-yl)thiazol-2-yl)amino)ethyl)benzamide]: in experiment [1], the IC50 is below 100 nM and the “BRM Max % Inhibition” value is reported as above 95%. Further, in experiment [2], the IC50 is below 100 nM and the “BRG1 Max % Inhibition” value is reported as above 95%.
In the case of `Cn1cnc2ccc(-c3csc(NC(=O)CNC(=O)c4ccc(N)cc4)n3)cc2c1=O` [Compound 148, 4-amino-N-(2-((4-(3-methyl-4-oxo-3,4-dihydroquinazolin-6-yl)thiazol-2-yl)amino)-2-oxoethyl)benzamide], in experiment [1], the IC50 is below 100 nM and the “BRM Max % Inhibition” value is given as above 95%. Besides, in experiment [2], the IC50 was below 100 nM and the “BRG1 Max % Inhibition” value is recorded as above 95%.
As for `N#Cc1ccc(-c2cccc(-c3csc(NC(=O)CNC(=O)c4ccc(N)cc4)n3)c2)cc1` [Compound 149, 4-amino-N-(2-((4-(4′-cyano-[1,1′-biphenyl]-3-yl)thiazol-2-yl)amino)-2-oxoethyl)benzamide], in experiment [1], the IC50 is below 100 nM and the “BRM Max % Inhibition” value is above 80%. Besides, in experiment [2], the IC50 was below 100 nM and the “BRG1 Max % Inhibition” value is listed as above 80%.
Turning to `Cn1ncc2ccc(-c3csc(NC(=O)CNC(=O)c4ccc(N)cc4)n3)cc2c1=O` [Compound 150, 4-amino-N-(2-((4-(3-methyl-4-oxo-3,4-dihydrophthalazin-6-yl)thiazol-2-yl)amino)-2-oxoethyl)benzamide], in experiment [1], the IC50 was below 100 nM and the “BRM Max % Inhibition” value is recorded as above 95%. In experiment [2], the IC50 is below 100 nM and the “BRG1 Max % Inhibition” value is on record as above 90%.
Consider `Nc1ccc(C(=O)NCC(=O)Nc2nc(-c3cccc(-c4ccn(CC(F)(F)F)n4)c3)cs2)cc1` [Compound 151, 4-amino-N-(2-oxo-2-((4-(3-(1-(2,2,2-trifluoroethyl)-1H-pyrazol-3-yl)phenyl)thiazol-2-yl)amino)ethyl)benzamide], for which, in experiment [1], the IC50 lay in the range of 100 to 1000 nM and the “BRM Max % Inhibition” value was above 80%. Moreover, in experiment [2], the IC50 was in the range of 100 to 1000 nM and the “BRG1 Max % Inhibition” value is listed as above 80%.
Turning to `Nc1ccc(C(=O)NCC(=O)Nc2nc(-c3cccc(-c4cccc(F)c4)c3)cs2)cc1` [Compound 152, 4-amino-N-(2-((4-(3′-fluoro-[1,1′-biphenyl]-3-yl)thiazol-2-yl)amino)-2-oxoethyl)benzamide], in experiment [1], the IC50 lay in the range of 100 to 1000 nM and the “BRM Max % Inhibition” value is on record as above 90%. In addition, in experiment [2], the IC50 lay within 100 to 1000 nM and the “BRG1 Max % Inhibition” value was above 80%.
As for `Nc1ccc(C(=O)NCC(=O)Nc2nc(-c3cccc(-c4ccc(CO)cc4)c3)cs2)cc1` [Compound 153, 4-amino-N-(2-((4-(4′-(hydroxymethyl)-[1,1′-biphenyl]-3-yl)thiazol-2-yl)amino)-2-oxoethyl)benzamide], in experiment [1], the IC50 is below 100 nM and the “BRM Max % Inhibition” value is reported as above 90%. In addition, in experiment [2], the IC50 was below 100 nM and the “BRG1 Max % Inhibition” value is above 80%.
Consider `Nc1ccc(C(=O)NCC(=O)Nc2nc(-c3cccc(-c4cccc(CO)c4)c3)cs2)cc1` [Compound 154, 4-amino-N-(2-((4-(3′-(hydroxymethyl)-[1,1′-biphenyl]-3-yl)thiazol-2-yl)amino)-2-oxoethyl)benzamide], for which, in experiment [1], the IC50 was below 100 nM and the “BRM Max % Inhibition” value is above 95%. Besides, in experiment [2], the IC50 was below 100 nM and the “BRG1 Max % Inhibition” value is recorded as above 95%.
Turning to `Nc1ccc(C(=O)NCC(=O)Nc2nc(-c3cccc(-c4cc[n+]([O-])cc4)c3)cs2)cc1` [Compound 156, 4-(3-(2-(2-(4-aminobenzamido)acetamido)thiazol-4-yl)phenyl)pyridine 1-oxide], in experiment [1], the IC50 lay within 100 to 1000 nM and the “BRM Max % Inhibition” value was above 95%. In addition, in experiment [2], the IC50 is 100 to 1000 nM and the “BRG1 Max % Inhibition” value is recorded as above 90%.
In the case of `N#Cc1cccc(-c2cccc(-c3csc(NC(=O)CNC(=O)c4ccc(N)cc4)n3)c2)c1` [Compound 157, 4-amino-N-(2-((4-(3′-cyano-[1,1′-biphenyl]-3-yl)thiazol-2-yl)amino)-2-oxoethyl)benzamide], in experiment [1], the IC50 was below 100 nM and the “BRM Max % Inhibition” value is above 95%. Besides, in experiment [2], the IC50 was below 100 nM and the “BRG1 Max % Inhibition” value is given as above 90%.
On to `NCC1CC=C(c2cccc(-c3csc(NC(=O)CNC(=O)c4ccc(N)cc4)n3)c2)CC1` (centres unmarked) [Compound 158, 4-amino-N-(2-((4-(4′-(aminomethyl)-2′,3′,4′,5′-tetrahydro-[1,1′-biphenyl]-3-yl)thiazol-2-yl)amino)-2-oxoethyl)benzamide], for which, in experiment [1], the IC50 lay in the range of 100 to 1000 nM and the “BRM Max % Inhibition” value is on record as above 90%. Further, in experiment [2], the IC50 fell in the range of 100 to 1000 nM and the “BRG1 Max % Inhibition” value is reported as above 95%.
On to `Nc1ccc(C(=O)NCC(=O)Nc2nc(-c3cccc(-c4ccnc(N5CCNCC5)c4)c3)cs2)cc1` [Compound 159, 4-amino-N-(2-oxo-2-((4-(3-(2-(piperazin-1-yl)pyridin-4-yl)phenyl)thiazol-2-yl)amino)ethyl)benzamide], for which, in experiment [1], the 50% inhibitory concentration (IC50) lay in the range of 100 to 1000 nM and the “BRM Max % Inhibition” value is on record as above 90%. Moreover, in experiment [2], the 50% inhibitory concentration (IC50) is 100 to 1000 nM and the “BRG1 Max % Inhibition” value is above 95%.
In the case of `NCCNc1cc(-c2cccc(-c3csc(NC(=O)CNC(=O)c4ccc(N)cc4)n3)c2)ccn1` [Compound 160, 4-amino-N-(2-((4-(3-(2-((2-aminoethyl)amino)pyridin-4-yl)phenyl)thiazol-2-yl)amino)-2-oxoethyl)benzamide], in experiment [1], the IC50 lay within 100 to 1000 nM and the “BRM Max % Inhibition” value is reported as above 95%. In experiment [2], the IC50 was 100 to 1000 nM and the “BRG1 Max % Inhibition” value is >95%,.
